Laboratory results from US20260069693A1, “UROLITHINS AND T-CELL MEDIATED IMMUNE RESPONSE” (priority 2022, published 2026).

System: T cells
Experiment: immunoblot, cell fractionation and immunofluorescence of stimulated T cells
Format: cell-based, mice
Method: Activated T cells were incubated on Poly-L-lysine coated coverslips for 10 min at 37° C. and then fixed with 4% PFA for 10 min, followed by permeabilization with 0.25% Triton X-100 for 10 mins. Staining for Pgam5 was performed as previously described (Yamaguchi et al., 2019), using rabbit Anti-Pgam5 antibody (ab126534, Abcam). Immune complexes were detected with 1:200-diluted anti-rabbit IgG Alexa Fluor 488 (Thermo Fisher). Nuclei were counterstained with a DAPI-containing liquid […] mountant (ProLong™ Gold Antifade Mountant, Thermo Fisher). Mitochondria were stained with 200 nM Mitotracker Red for 45 min Image were acquired by confocal microscopy.
5×10^6 isolated T cells were stimulated on cell-culture plates coated with 1:200 α-CD3 (145-2C11; 100339; BioLegend) and α-CD28 (37.51; 102115, Biolegend) for the indicated time points. After centrifugation for 5 mins at 1500 rpm, cell pellets were resuspended in complete protein lysis buffer (50 mM Tris pH 7.5, 250 mM sodium chloride, 30 mM EDTA, 25 mM sodium pyrophosphate, 1% Triton-X 100, 0.5% NP-40, 10% glycerol and 1 mM DTT) supplemented with protease and phosphatase inhibitors (Roche). When subcellular location of Pgam5 was studied, a cell fractionation kit (Abcam, Ab109719) was used according to the manufacturer's instructions. Fractionation and whole-cell lysates were snap frozen and stored at −80° C. until further analysis. Collected lysates were mixed with 10% β-mercaptoethanol Laemmli buffer and denatured for 10 min at 70° C. Equal amounts of protein as assessed by Bradford measurement (Pierce™ Coomassie Plus (Bradford) Assay Reagent, ThermoFisher) were subjected to 10-15% SDS-PAGE, then transferred to […] PVDF membranes (MeckMillipore). Membranes were blocked for 30 mins in PBS-T/5% milk or PBST-T/5% BSA prior to antibody incubation overnight with the following antibodies: β-Actin (Sigma; #A4700), Gapdh (Santacruz; sc32233), Parkin (Santacruz; sc32283), Phospho-β-Catenin (CellSignaling; 9561), TOM20 (CellSignaling; D84TN; 42406S); pStat1 (Cellsignaling; 9167) and PGAM5 (Abcam; ab126534). Afterwards, membranes were incubated for one hour with their respective HRP-conjugated secondary antibodies (Santacruz: sc2314 and sc2313), followed by development using SuperSignal West Pico Chemoluminescence Substrate (ThermoFischer Scientific). 2D densitometry was performed using ImageJ Software (National Institutes of Health, Bethesda, Maryland).

What does the source list for `O=c1oc2cc(O)ccc2c2ccc(O)cc12` [UA, Urolithin A]?
phosphorylation of Stat1 (UA treated T cells compared to vehicle controls): equal phosphorylation; Parkin protein expression (immunoblot, 24 h, UA 50 μM): stabilized; b-catenin phosphorylation (immunoblot, after 6 hours, UA 50 μM): marked decrease; Pgam5 localization (sub-cellular fractionations and immunofluorescence, 6 h, UA 50 μM): rapidly released into the cytoplasma
